# From patent US10681909B2, “Herbicidal triazoles” (FMC Corporation, priority 2014, dated 2020)
# Assays:
# morningglory = test: Test E preemergence; assay type: in vivo, Ipomoea coccinea; details: scale 0 to 100
# Description: (§1) Seeds of plant species selected from corn (Zea mays), soybean (Glycine max), lambsquarters (Chenopodium album), poinsettia, wild (wild poinsettia, Euphorbia heterophylla), pigweed, palmer (palmer pigweed, Amaranthus palmeri), waterhemp (common waterhemp, Amaranthus rudis), surinam grass (Brachiaria decumbens), crabgrass, large (large crabgrass, Digitaria sanguinalis), crabgrass, Brazilian (Brazilian crabgrass, Digitaria horizontalis), panicum, fall (fall panicum, Panicum dichotomiflorum), foxtail, giant (giant foxtail, Setaria faberii), foxtail, green (green foxtail, Setaria viridis), goosegrass (Eleusine indica), johnsongrass (Sorghum halepense), ragweed (common ragweed, Ambrosia elatior), barnyardgrass (Echinochloa crus-galli), sandbur (southern sandbur, Cenchrus echinatus), arrowleaf sida (Sida rhombifolia), ryegrass, Italian (Italian ryegrass, Lolium multiflorum), dayflower, VA (Virginia dayflower, Commelina virginica), field bindweed (Convolvulus arvensis), cocklebur (common cocklebur, Xanthium strumarium), morningglory (Ipomoea coccinea), nightshade (eastern black nightshade, Solanum ptycanthum), kochia (Kochia scoparia), nutsedge, yellow (yellow nutsedge, Cyperus esculentus), smartweed (ladysthumb smartweed, Polygonum persicaria), velvetleaf (Abutilon theophrasti), horseweed (Conyza canadensis), and beggarticks (hairy beggarticks, Bidens pilosa), were planted into a silt loam soil and treated preemergence with test chemicals formulated in a non-phytotoxic solvent mixture which included a surfactant.
# (§2) At the same time, plants from these crop and weed species and also waterhemp_RES1, (ALS & Triazine resistant common waterhemp, Amaranthus rudis), and waterhemp_RES2, (ALS & HPPD resistant common waterhemp, Amaranthus rudis) were planted in pots containing Sunshine Redi-Earth® planting medium comprising spaghnum peat moss, vermiculite, starter nutrients and dolomitic limestone were treated with postemergence applications of test chemicals formulated in the same manner. Plants ranged in height from 2 to 18 cm for postemergence treatments (1- to 4-leaf stage). Treated plants and controls were maintained in a greenhouse for 14 to 21 d, after which time all species were compared to controls and visually evaluated. Plant response ratings, summarized in Table E, are based on a scale of 0 to 100 where 0 is no effect and 100 is complete control. A dash (-) response means no test result.
# dayflower, VA = test: Test E preemergence; assay type: in vivo, Commelina virginica; details: scale 0 to 100
# Description: as §1, §2
# goosegrass = test: Test E preemergence; assay type: in vivo, Eleusine indica; details: scale 0 to 100
# Description: as §1, §2
# corn [1] = test: Test E preemergence; assay type: in vivo, Zea mays; details: scale 0 to 100
# Description: as §1, §2
# panicum, fall [2] = test: Test E preemergence; assay type: in vivo, Panicum dichotomiflorum; details: scale 0 to 100
# Description: as §1, §2
# nightshade = test: Test E preemergence; assay type: in vivo, Solanum ptycanthum; details: scale 0 to 100
# Description: as §1, §2
# soybean = test: Test E postemergence; assay type: in vivo, Glycine max; details: scale 0 to 100
# Description: as §1, §2
# johnsongrass = test: Test E preemergence; assay type: in vivo, Sorghum halepense; details: scale 0 to 100
# Description: as §1, §2
# field bindweed = test: Test E postemergence; assay type: in vivo, Convolvulus arvensis; details: scale 0 to 100
# Description: as §1, §2
# panicum, fall [3] = test: Test E postemergence; assay type: in vivo, Panicum dichotomiflorum; details: scale 0 to 100
# Description: as §1, §2
# crabgrass, Brazilian [4] = test: Test E postemergence; assay type: in vivo, Digitaria horizontalis; details: Brazil, scale 0 to 100
# Description: as §1, §2
# sandbur = test: Test E postemergence; assay type: in vivo, Cenchrus echinatus; details: scale 0 to 100
# Description: as §1, §2
# pigweed, palmer = test: Test E preemergence; assay type: in vivo, Amaranthus palmeri; details: scale 0 to 100
# Description: as §1, §2
# arrowleaf sida [5] = test: Test E preemergence; assay type: in vivo, Sida rhombifolia; details: scale 0 to 100
# Description: as §1, §2
# crabgrass, Brazilian [6] = test: Test E preemergence; assay type: in vivo, Digitaria horizontalis; details: Brazil, scale 0 to 100
# Description: as §1, §2
# crabgrass, large = test: Test E preemergence; assay type: in vivo, Digitaria sanguinalis; details: scale 0 to 100
# Description: as §1, §2
# corn [7] = test: Test E postemergence; assay type: in vivo, Zea mays; details: scale 0 to 100
# Description: as §1, §2
# foxtail, green = test: Test E preemergence; assay type: in vivo, Setaria viridis; details: scale 0 to 100
# Description: as §1, §2
# arrowleaf sida [8] = test: Test E postemergence; assay type: in vivo, Sida rhombifolia; details: scale 0 to 100
# Description: as §1, §2
structure (smiles),measurement,setting,value
CCOc1nc(-c2ccccc2)nn1Cc1ccnc(C(F)(F)F)c1 [Compound 27],Plant response rating,morningglory; 16 g ai/ha,15
same,Plant response rating,morningglory; 31 g ai/ha,25
same,Plant response rating,morningglory; 62 g ai/ha,35
same,Plant response rating,morningglory; 125 g ai/ha,35
same,Plant response rating,"dayflower, VA; 16 g ai/ha",10
same,Plant response rating,"dayflower, VA; 31 g ai/ha",10
same,Plant response rating,"dayflower, VA; 62 g ai/ha",10
same,Plant response rating,"dayflower, VA; 125 g ai/ha",50
same,Plant response rating,goosegrass; 16 g ai/ha,80
same,Plant response rating,goosegrass; 31 g ai/ha,98
same,Plant response rating,goosegrass; 62 g ai/ha,95
same,Plant response rating,goosegrass; 125 g ai/ha,100
same,Plant response rating,corn [1]; 16 g ai/ha,0
same,Plant response rating,corn [1]; 31 g ai/ha,0
same,Plant response rating,corn [1]; 62 g ai/ha,25
same,Plant response rating,corn [1]; 125 g ai/ha,50
same,Plant response rating,"panicum, fall [2]; 16 g ai/ha",65
same,Plant response rating,"panicum, fall [2]; 31 g ai/ha",100
same,Plant response rating,"panicum, fall [2]; 62 g ai/ha",100
same,Plant response rating,"panicum, fall [2]; 125 g ai/ha",100
same,Plant response rating,nightshade; 16 g ai/ha,0
same,Plant response rating,nightshade; 31 g ai/ha,50
same,Plant response rating,nightshade; 62 g ai/ha,98
same,Plant response rating,nightshade; 125 g ai/ha,100
same,Plant response rating,soybean; 16 g ai/ha,70
same,Plant response rating,soybean; 31 g ai/ha,80
same,Plant response rating,soybean; 62 g ai/ha,80
same,Plant response rating,soybean; 125 g ai/ha,95
same,Plant response rating,johnsongrass; 16 g ai/ha,100
same,Plant response rating,johnsongrass; 31 g ai/ha,95
same,Plant response rating,johnsongrass; 62 g ai/ha,100
same,Plant response rating,johnsongrass; 125 g ai/ha,100
same,Plant response rating,field bindweed; 16 g ai/ha,50
same,Plant response rating,field bindweed; 31 g ai/ha,60
same,Plant response rating,field bindweed; 62 g ai/ha,70
same,Plant response rating,field bindweed; 125 g ai/ha,80
same,Plant response rating,"panicum, fall [3]; 16 g ai/ha",10
same,Plant response rating,"panicum, fall [3]; 31 g ai/ha",10
same,Plant response rating,"panicum, fall [3]; 62 g ai/ha",15
same,Plant response rating,"panicum, fall [3]; 125 g ai/ha",30
same,Plant response rating,"crabgrass, Brazilian [4]; 16 g ai/ha",20
same,Plant response rating,"crabgrass, Brazilian [4]; 31 g ai/ha",20
same,Plant response rating,"crabgrass, Brazilian [4]; 62 g ai/ha",30
same,Plant response rating,"crabgrass, Brazilian [4]; 125 g ai/ha",40
same,Plant response rating,sandbur; 16 g ai/ha,0
same,Plant response rating,sandbur; 31 g ai/ha,20
same,Plant response rating,sandbur; 62 g ai/ha,30
same,Plant response rating,sandbur; 125 g ai/ha,30
same,Plant response rating,"pigweed, palmer; 16 g ai/ha",85
same,Plant response rating,"pigweed, palmer; 31 g ai/ha",100
same,Plant response rating,"pigweed, palmer; 62 g ai/ha",100
same,Plant response rating,"pigweed, palmer; 125 g ai/ha",100
same,Plant response rating,arrowleaf sida [5]; 16 g ai/ha,20
same,Plant response rating,arrowleaf sida [5]; 31 g ai/ha,20
same,Plant response rating,arrowleaf sida [5]; 62 g ai/ha,75
same,Plant response rating,arrowleaf sida [5]; 125 g ai/ha,90
same,Plant response rating,"crabgrass, Brazilian [6]; 16 g ai/ha",90
same,Plant response rating,"crabgrass, Brazilian [6]; 31 g ai/ha",100
same,Plant response rating,"crabgrass, Brazilian [6]; 62 g ai/ha",100
same,Plant response rating,"crabgrass, Brazilian [6]; 125 g ai/ha",100
same,Plant response rating,"crabgrass, large; 16 g ai/ha",98
same,Plant response rating,"crabgrass, large; 31 g ai/ha",100
same,Plant response rating,"crabgrass, large; 62 g ai/ha",100
same,Plant response rating,"crabgrass, large; 125 g ai/ha",100
same,Plant response rating,corn [7]; 16 g ai/ha,10
same,Plant response rating,corn [7]; 31 g ai/ha,15
same,Plant response rating,corn [7]; 62 g ai/ha,20
same,Plant response rating,corn [7]; 125 g ai/ha,25
same,Plant response rating,"foxtail, green; 16 g ai/ha",75
same,Plant response rating,"foxtail, green; 31 g ai/ha",100
same,Plant response rating,"foxtail, green; 62 g ai/ha",100
same,Plant response rating,"foxtail, green; 125 g ai/ha",100
same,Plant response rating,arrowleaf sida [8]; 16 g ai/ha,70
same,Plant response rating,arrowleaf sida [8]; 31 g ai/ha,80
same,Plant response rating,arrowleaf sida [8]; 62 g ai/ha,90
same,Plant response rating,arrowleaf sida [8]; 125 g ai/ha,100
Fc1ccc(-c2nc(OCC(F)(F)F)n(Cc3ccnc(C(F)(F)F)c3)n2)cc1 [Compound 30],Plant response rating,morningglory; 31 g ai/ha,25
same,Plant response rating,morningglory; 62 g ai/ha,15
same,Plant response rating,morningglory; 125 g ai/ha,15
same,Plant response rating,morningglory; 250 g ai/ha,65
same,Plant response rating,"dayflower, VA; 31 g ai/ha",5
same,Plant response rating,"dayflower, VA; 62 g ai/ha",10
same,Plant response rating,"dayflower, VA; 125 g ai/ha",25
same,Plant response rating,"dayflower, VA; 250 g ai/ha",65
same,Plant response rating,goosegrass; 31 g ai/ha,70
same,Plant response rating,goosegrass; 62 g ai/ha,100
same,Plant response rating,goosegrass; 125 g ai/ha,100
same,Plant response rating,goosegrass; 250 g ai/ha,100
same,Plant response rating,corn [1]; 31 g ai/ha,0
same,Plant response rating,corn [1]; 62 g ai/ha,0
same,Plant response rating,corn [1]; 125 g ai/ha,0
same,Plant response rating,corn [1]; 250 g ai/ha,50
same,Plant response rating,"panicum, fall [2]; 31 g ai/ha",100
same,Plant response rating,"panicum, fall [2]; 62 g ai/ha",98
same,Plant response rating,"panicum, fall [2]; 125 g ai/ha",100
same,Plant response rating,"panicum, fall [2]; 250 g ai/ha",100
same,Plant response rating,nightshade; 31 g ai/ha,20
same,Plant response rating,nightshade; 62 g ai/ha,80
same,Plant response rating,nightshade; 125 g ai/ha,90
same,Plant response rating,nightshade; 250 g ai/ha,98
same,Plant response rating,soybean; 31 g ai/ha,75
same,Plant response rating,soybean; 62 g ai/ha,80
same,Plant response rating,soybean; 125 g ai/ha,85
same,Plant response rating,soybean; 250 g ai/ha,95
same,Plant response rating,johnsongrass; 31 g ai/ha,65
same,Plant response rating,johnsongrass; 62 g ai/ha,65
same,Plant response rating,johnsongrass; 125 g ai/ha,98
same,Plant response rating,johnsongrass; 250 g ai/ha,100
same,Plant response rating,field bindweed; 31 g ai/ha,70
same,Plant response rating,field bindweed; 62 g ai/ha,70
same,Plant response rating,field bindweed; 125 g ai/ha,75
same,Plant response rating,field bindweed; 250 g ai/ha,70
same,Plant response rating,"panicum, fall [3]; 31 g ai/ha",20
same,Plant response rating,"panicum, fall [3]; 62 g ai/ha",30
same,Plant response rating,"panicum, fall [3]; 125 g ai/ha",35
same,Plant response rating,"panicum, fall [3]; 250 g ai/ha",30
same,Plant response rating,"crabgrass, Brazilian [4]; 31 g ai/ha",35
same,Plant response rating,"crabgrass, Brazilian [4]; 62 g ai/ha",60
same,Plant response rating,"crabgrass, Brazilian [4]; 125 g ai/ha",70
same,Plant response rating,"crabgrass, Brazilian [4]; 250 g ai/ha",85
same,Plant response rating,sandbur; 31 g ai/ha,20
same,Plant response rating,sandbur; 62 g ai/ha,30
same,Plant response rating,sandbur; 125 g ai/ha,30
same,Plant response rating,sandbur; 250 g ai/ha,35
same,Plant response rating,"pigweed, palmer; 31 g ai/ha",90
same,Plant response rating,"pigweed, palmer; 62 g ai/ha",100
same,Plant response rating,"pigweed, palmer; 125 g ai/ha",100
same,Plant response rating,"pigweed, palmer; 250 g ai/ha",100
same,Plant response rating,arrowleaf sida [5]; 31 g ai/ha,40
same,Plant response rating,arrowleaf sida [5]; 62 g ai/ha,65
same,Plant response rating,arrowleaf sida [5]; 125 g ai/ha,85
same,Plant response rating,arrowleaf sida [5]; 250 g ai/ha,95
same,Plant response rating,"crabgrass, Brazilian [6]; 31 g ai/ha",90
same,Plant response rating,"crabgrass, Brazilian [6]; 62 g ai/ha",100
same,Plant response rating,"crabgrass, Brazilian [6]; 125 g ai/ha",100
same,Plant response rating,"crabgrass, Brazilian [6]; 250 g ai/ha",100
same,Plant response rating,"crabgrass, large; 31 g ai/ha",98
same,Plant response rating,"crabgrass, large; 62 g ai/ha",98
same,Plant response rating,"crabgrass, large; 125 g ai/ha",100
same,Plant response rating,"crabgrass, large; 250 g ai/ha",100
same,Plant response rating,corn [7]; 31 g ai/ha,10
same,Plant response rating,corn [7]; 62 g ai/ha,20
same,Plant response rating,corn [7]; 125 g ai/ha,20
same,Plant response rating,corn [7]; 250 g ai/ha,30
same,Plant response rating,"foxtail, green; 31 g ai/ha",95
same,Plant response rating,"foxtail, green; 62 g ai/ha",100
same,Plant response rating,"foxtail, green; 125 g ai/ha",100
same,Plant response rating,"foxtail, green; 250 g ai/ha",100
same,Plant response rating,arrowleaf sida [8]; 31 g ai/ha,100
same,Plant response rating,arrowleaf sida [8]; 62 g ai/ha,95
same,Plant response rating,arrowleaf sida [8]; 125 g ai/ha,95
same,Plant response rating,arrowleaf sida [8]; 250 g ai/ha,98
